According to the NIST ThermoML archive (doi:10.1021/je200811n):

Conditions: Hot wire method

C=C(F)C(F)(F)F [2,3,3,3-tetrafluoro-1-propene]
Conditions | thermal conductivity [W/m/K]
332.05 K, 300 kPa, Gas | 0.01662
332.05 K, 1511 kPa, Gas | 0.01807
332.06 K, 821 kPa, Gas | 0.01681
332.12 K, 1388 kPa, Gas | 0.01774
332.13 K, 627 kPa, Gas | 0.01673
332.19 K, 1235 kPa, Gas | 0.01737
332.21 K, 465 kPa, Gas | 0.01667
332.27 K, 1074 kPa, Gas | 0.01714
332.3 K, 974 kPa, Gas | 0.01699
332.31 K, 299 kPa, Gas | 0.01673
332.33 K, 1511 kPa, Gas | 0.01806
332.36 K, 820 kPa, Gas | 0.01686
332.38 K, 202 kPa, Gas | 0.0168
332.41 K, 1386 kPa, Gas | 0.01772
332.46 K, 626 kPa, Gas | 0.01677
332.48 K, 1233 kPa, Gas | 0.01739
332.55 K, 102 kPa, Gas | 0.01703
332.56 K, 463 kPa, Gas | 0.01674
332.58 K, 1073 kPa, Gas | 0.01716
332.62 K, 973 kPa, Gas | 0.01704
332.62 K, 1511 kPa, Gas | 0.01806
332.67 K, 299 kPa, Gas | 0.01675
332.69 K, 819 kPa, Gas | 0.0169
332.71 K, 1385 kPa, Gas | 0.0177
332.75 K, 202 kPa, Gas | 0.01687
332.81 K, 626 kPa, Gas | 0.01677
332.81 K, 1233 kPa, Gas | 0.01741
332.91 K, 1072 kPa, Gas | 0.01718
332.91 K, 1511 kPa, Gas | 0.01803
332.92 K, 461 kPa, Gas | 0.01677
332.95 K, 101 kPa, Gas | 0.01705
332.96 K, 972 kPa, Gas | 0.01706
333.04 K, 299 kPa, Gas | 0.01681
333.04 K, 1384 kPa, Gas | 0.0177
333.05 K, 818 kPa, Gas | 0.01692
333.14 K, 1232 kPa, Gas | 0.01741
333.15 K, 202 kPa, Gas | 0.01686
333.18 K, 625 kPa, Gas | 0.01682
333.26 K, 1071 kPa, Gas | 0.0172
333.3 K, 460 kPa, Gas | 0.01681
333.31 K, 972 kPa, Gas | 0.01708
333.38 K, 101 kPa, Gas | 0.01705
333.41 K, 817 kPa, Gas | 0.01696
333.45 K, 300 kPa, Gas | 0.01686
333.56 K, 624 kPa, Gas | 0.01687
333.57 K, 202 kPa, Gas | 0.01692
333.69 K, 460 kPa, Gas | 0.01685
333.83 K, 102 kPa, Gas | 0.0171
333.87 K, 300 kPa, Gas | 0.01688
334.02 K, 202 kPa, Gas | 0.01695
334.31 K, 102 kPa, Gas | 0.01716
341.28 K, 102 kPa, Gas | 0.01759
341.35 K, 201 kPa, Gas | 0.01779
341.39 K, 303 kPa, Gas | 0.01795
341.45 K, 17165 kPa, Liquid | 0.0645
341.49 K, 102 kPa, Gas | 0.01745
341.52 K, 12122 kPa, Liquid | 0.06134
341.52 K, 21726 kPa, Liquid | 0.06742
341.55 K, 17165 kPa, Liquid | 0.06461
341.56 K, 200 kPa, Gas | 0.01761
341.6 K, 303 kPa, Gas | 0.01775
341.6 K, 8202 kPa, Liquid | 0.05839
341.61 K, 21724 kPa, Liquid | 0.06756
341.62 K, 12120 kPa, Liquid | 0.06114
341.69 K, 5189 kPa, Liquid | 0.05547
341.7 K, 8198 kPa, Liquid | 0.05823
341.73 K, 103 kPa, Gas | 0.01734
341.77 K, 2101 kPa, Liquid | 0.05131
341.79 K, 200 kPa, Gas | 0.0175
341.8 K, 5187 kPa, Liquid | 0.05524
341.8 K, 17162 kPa, Liquid | 0.0647
341.82 K, 302 kPa, Gas | 0.01766
341.85 K, 21720 kPa, Liquid | 0.06741
341.88 K, 12117 kPa, Liquid | 0.06141
341.89 K, 2100 kPa, Liquid | 0.05083
341.92 K, 17160 kPa, Liquid | 0.06488
341.96 K, 103 kPa, Gas | 0.01726
341.96 K, 21718 kPa, Liquid | 0.06759
341.98 K, 8198 kPa, Liquid | 0.05827
342.01 K, 12114 kPa, Liquid | 0.06141
342.02 K, 199 kPa, Gas | 0.01743
342.03 K, 1842 kPa, Gas | 0.01945
342.03 K, 1904 kPa, Gas | 0.01996
342.04 K, 1737 kPa, Gas | 0.0191
342.05 K, 302 kPa, Gas | 0.01758
342.07 K, 1574 kPa, Gas | 0.01854
342.08 K, 5185 kPa, Liquid | 0.0553
342.11 K, 8197 kPa, Liquid | 0.05815
342.16 K, 1405 kPa, Gas | 0.01818
342.17 K, 951 kPa, Gas | 0.01775
342.18 K, 17158 kPa, Liquid | 0.06504
342.19 K, 814 kPa, Gas | 0.0177
342.19 K, 2098 kPa, Liquid | 0.05099
342.21 K, 103 kPa, Gas | 0.01718
342.22 K, 5183 kPa, Liquid | 0.05512
342.22 K, 21716 kPa, Liquid | 0.0677
342.26 K, 605 kPa, Gas | 0.01764
342.27 K, 199 kPa, Gas | 0.01735
342.27 K, 1842 kPa, Gas | 0.01963

Conditions | thermal conductivity [W/m/K]
333.15 K, Liquid | 0.05329
